Test results from US11471425B2, “Pharmaceutical composition containing broussochalcone a as active ingredient for treatment of inflammatory bowel disease” (BIOPHARMARESEARCHLAB CO., LTD., priority 2017, dated 2022).
Read-outs that look alike come from different tables or passages of the source.

Columns and labels:
[1] = test system: ulcerative colitis-induced mice; test: Disease activity index (DAI) in DSS-induced ulcerative colitis mice; format: in vivo, C57BL/6J mice; settings: 3% (w/v) DSS in drinking water from day 3; specimen orally at 100 μl/10 g bw; compared with control group
Description: The normal group received a mixture of 9 ml of Koliphor EL (Sigma, USA) and 1 ml of DMSO at the same dose as the BA experimental group. The normal group was allowed to access water ad libitum during the experimental period.
The control group received a mixture of 9 ml of Koliphor EL (Sigma, USA) and 1 ml of DMSO at the same dose as the BA experimental group.
During the experimental period, the mice were caused to defecate once a day. Feces appearance was observed and fecal occult blood was observed using the Beckman Coulter Hemoccult Single Slides (Beckman Coulter, Inc., USA). The observation results were expressed in scores according to the criteria in Table 2.
Disease activity index (DAI)=(Fecal consistency+fecal color)/2

[2] = test system: ulcerative colitis-induced mice; test: Colon length in DSS-induced ulcerative colitis mice; format: in vivo, C57BL/6J mice; settings: 3% (w/v) DSS from day 3; oral 100 μl/10 g bw; colon extracted on day 11
Description: (§1) On day 11, the mice were sacrificed by intraperitoneal injection of Alfaxan (Jurox Pty Limited, Australia), and then the colon, which ranges from the cecum site to the site immediately before the anus, was extracted. After all colonic contents in the colon tissues were removed, some specimens were fixed in 4% (v/v) paraformaldehyde fixative for use as pathological specimens, and the other specimens were stored frozen at −80° C. for molecular biological analysis.

[3] = Changes in body weight of ulcerative colitis-induced mice; format: in vivo, C57BL/6J mice; settings: 3% (w/v) DSS from day 3; oral 100 μl/10 g bw; measured daily from day 0
Description: Since ulcerative colitis-induced animals lose weight, a symptom-alleviating effect was checked by measuring changes in body weight.
For the respective normal group, control group, positive control group, and BA experimental group prepared in Example 1, the body weight was measured using a precision balance at the start of the experiment (day 0), and changes in body weight were measured at daily intervals for comparison.

myeloperoxidase (MPO) = test: Myeloperoxidase (MPO) activity in colon tissues of ulcerative colitis-induced mice; format: in vivo, C57BL/6J mice; settings: colon tissue, day 11; absorbance at 412 nm, average of three measurements
Description: as §1
For the mice for which ulcerative colitis had been induced by DSS, activity of MPO, an inflammatory indicator, was checked.
The colon tissues stored frozen in Example 3 were analyzed using the […] Colorimetric Activity Assay Kit (Sigma, USA), in which absorbance at a wavelength of 412 nm was measured three times to calculate an average value.

[4] = test system: colon tissues of ulcerative colitis-induced mice; test: Histological analysis (H&E staining) of colon tissues of ulcerative colitis-induced mice; format: in vivo, C57BL/6J mice; settings: 4 μm paraffin sections, colon extracted on day 11
Description: as §1
The colon tissues stored frozen in Example 3 were fixed in 4% paraformaldehyde for 48 hours and then washed with PBS. The fixed tissues were embedded in paraffin, cut into 4 μm thickness, and stained with hematoxylin and eosin. Then, the stained tissues were observed under a microscope.

[5] = Food intake by ulcerative colitis-induced mice; settings: 3% (w/v) DSS from day 3; oral 100 μl/10 g bw; measured daily, day 0 to day 11
Description: (§2) In addition, changes in body weight and food intake were observed by measuring the body weight and food intake at daily intervals from the start (day 0) to the end (day 11) of the animal experiment.
(§3) 7-Week-old C57BL/6J mice were purchased from Central Lab. Animal Inc. (Seoul, Korea) and acclimatized for 7 days to an experimental environment, which was maintained at constant humidity and constant temperature under a 12-hour light/dark cycle, while allowing them to access solid feed and water ad libitum. After 7 days of acclimatization period, the mice were divided into normal group, control group, positive control group (sulfasalazine), and BA experimental group (broussochalcone A) (Table 1).
(§4) Sulfasalazine (Sigma, USA) was quantified at 150 mg and dissolved in 1 ml of DMSO to prepare an SUL solution. 9 ml of Koliphor EL was diluted in PBS to prepare a 10% (v/v) Koliphor solution. The SUL solution was mixed with 9 ml of 10% (v/v) Koliphor solution to prepare an SUL specimen. Then, the SUL specimen was quantified and orally administered at 100 μl/10 g·body weight (bw) to the positive control group. […]
(§5) Broussochalcone A (Natural Products Bank, Korea) was quantified at 20 mg and dissolved in 1 ml of DMSO to prepare a BA solution. […] Then, the BA specimen was quantified and orally administered at 100 μl/10 g·body weight (bw) to the BA experimental group. […]

[6] = mouse, in vivo, po
Description: as §2, §3, §4, §5

CC(C)=CCc1cc(C(=O)/C=C/c2ccc(O)c(O)c2)c(O)cc1O [broussochalcone A]
Disease activity index (DAI) = (fecal consistency + fecal color)/2 [1]: lower DAI than the control group
colon length compared with the normal group (in words) [2]: colon length similar to that of the normal group
decrease in body weight [3]: about 5%
MPO activity as compared with the normal group (in words) (myeloperoxidase (MPO)): did not exhibit significantly different MPO activity as compared with the normal group
histological changes in colon tissue: structure of the mucosa [4]: the structure of the mucosa was maintained
food intake compared with the normal group [5]: an increase in food intake as compared with the normal group

O=C(O)c1cc(/N=N/c2ccc(S(=O)(=O)Nc3ccccn3)cc2)ccc1O [sulfasalazine, Sulfasalazine]
Disease activity index (DAI) = (fecal consistency + fecal color)/2 [1]: high DAI
colon length shorter than that of the normal group [2]: about 2.8 cm
decrease in body weight [3]: about 20%
increase in MPO activity as compared with the normal group (myeloperoxidase (MPO)): about 1.5 fold
histological changes in colon tissue: goblet cells and surface epithelium [4]: had lost goblet cells and surface epithelium
histological changes in colon tissue: immune cell penetration [4]: many immune cells had penetrated the colon tissues
histological changes in colon tissue: structure of the mucosa [4]: the structure of the mucosa was partially maintained
food intake compared with the normal group [6]: a decrease in food intake
